Results: US20050203068A1, “Pharmaceutical compositions containing water-soluble prodrugs of propofol and methods of administering same” (priority 2002, published 2005)
Where a name gives a salt, the structure may show the parent alone.

What was measured:
healthy subjects [1] = assay: Single bolus AQUAVAN, six cohorts: lowest OAA/S score and duration of sedation; assay type: in vivo, human
Procedure: (§1) Twenty-four healthy subjects (all ASA 1, 25±5 yrs., 70±8 kg) were randomized into 4 cohorts, with 3 male and 3 female in each. Each of the four cohorts was given a single dose of the study formulation described in Table 1 above (5, 10, 20, and 25 mg/kg, AQUAVAN™ respectively). Anesthetic effect was measured continuously using a BIS-XP monitor (Aspect Medical Systems, Natick, Mass.). The lowest BIS level (BISpeak) was recorded. One week later, propofol was given to the same individuals at a rapid infusion rate of 300 ml/h to reach a similar BISpeak. Heart rate (HR), O2 saturation, systolic (SBP) and diastolic (DBP) blood pressure were monitored non-invasively. Incidence and duration of apnea, loss (LOC) and return (ROC) of consciousness and duration of unconsciousness (DOU) were measured with the OAA/S score. Adverse events were recorded. Statistical analysis was performed using Wilcoxon Signed Ranks Test, Mann-Whitney-U test, Chi-Square test and Pearson correlation where appropriate.
In addition to induction of unconsciousness and duration of general anesthesia (see above), the response of the study subjects to AQUAVAN™ was also examined with regard to sedation. For this purpose, two additional cohorts (n=6 each) were dosed with 15 and 30 mg/kg of AQUAVAN™ as described above. For subjects in all six cohorts, the lowest OAA/S score achieved after AQUAVAN™ administration and the duration of sedation were recorded, with an OAA/S score of 5 indicating no sedation, scores ranging from 4-2 indicating increasingly deep sedated states, and a score of 1 indicating loss of consciousness (LOC)(but allowing for an undirected response to painful tactile stimuli). […] A conscious sedated state typically preceded and followed a period of unconsciousness in subjects who reached LOC. “Mean duration of sedation/LOC” in Table 4 refers to the total time interval from onset of sedation through LOC to recovery of alertness (no sedation).

healthy volunteers = assay: TCI infusion of AQUAVAN over 2 hours: alertness/sedation (OAA/S, BIS), haemodynamics, propofol plasma concentration
Procedure: A sterile solution of AQUAVAN™ was prepared as described for Example 1, above.
Six female (28±3 yrs, 57±4 kg body weight) and 6 male (32±6 yrs., 78±9 kg body weight) volunteers were studied. For a period of 2 hours, a TCI infusion of AQUAVAN™ was administered to provide adequate sedation. The initially selected target concentration of propofol from AQUAVAN™ was 1.8 μg/ml. Sedation was rated as adequate if according to a modified Observers Assessment of Alertness and Sedation Scale (OAA/S) the OAA/S scale value was 2 to 3. After 60 minutes, the target concentration was increased to 2.4 or 3 μg/ml if the OAA/S scale value was 4 or 5, respectively, or reduced to 1.4 μg/ml if the OAA/S scale value was 0 to 1. With an Aspect® A-1000 monitor and two frontal leads the BIS values were recorded. The ECG, blood pressure, heart rate, SaO2 and GPI as well as propofol plasma concentrations were measured. All values are given as mean±standard deviation.

healthy subjects [2] = assay: Single bolus AQUAVAN vs equipotent rapid infusion of propofol: anesthetic effect (BIS, LOC, ROC, DOU), adverse events; assay type: in vivo, human; settings: for Pain on injection, incidence / Apnea, incidence / Initial increase in heart rate (HR>90 bpm), incidence: 24 subjects; for Pain on injection, incidence: all cohorts; for Apnea, incidence: dose-dependent; for Initial increase in heart rate (HR>90 bpm), incidence: following administration; for Initial increase in heart rate (HR>90 bpm), incidence / Time of BISpeak (lowest BIS level): p<0.05; for Time of BISpeak (lowest BIS level): AQUAVAN bolus 5-25 mg/kg, propofol rapid infusion 300 ml/h to similar BISpeak; for DOU (duration of unconsciousness) / Time to LOC / Time to ROC: n=6, mean ± SD
Procedure: This example compares the pharmacodynamics of propofol when administered as a single, bolus dose of the prodrug O-phosphonooxymethyl-propofol di-sodium salt (AQUAVAN™) in accordance with the present invention, to the pharmacodynamics of propofol when administered as such. A sterile solution, the “study formulation,” was prepared in a 20 mL vial, with 20 mg/mL of AQUAVAN™ and 0.4 wt % NaCl. The pH of the solution was adjusted to 8.6±0.4 with HCl or NaOH, as needed.
as §1

healthy male volunteers = assay: Target controlled infusion (TCI) of AQUAVAN vs propofol: EEG, loss/recovery of consciousness and corneal reflex; assay type: in vivo, human; settings: for Time to LOCR (loss of corneal reflex) / Time to ROC (recovery of consciousness) / Time to ROCR (recovery of corneal reflex) / Time to LOC (loss of consciousness): TCI infusion 60 min, propofol targets 5, 3, 1.5 micrograms/ml; for Time to LOC (loss of consciousness): time after start of infusion
Procedure: This example compares the effects of target controlled infusions (TCI) of propofol and of O-phosphonooxymethyl propofol disodium salt (AQUAVAN™) on electrical brain activity and consciousness of healthy male volunteers. A sterile solution was prepared in a 20 mL vial, with 20 mg/mL of AQUAVAN™ and 0.4 wt % NaCl. The pH of the solution was adjusted to 8.6±0.4 with HCl or NaOH, as needed.
Nine male volunteers (age 19 to 35 yrs., body wt. 70 to 86 kg) received propofol as a target controlled infusion (TCI) with three different target concentrations over 60 min. After a washout period of 14 days, the same volunteers received a TCI infusion of AQUAVAN™ with identical propofol target concentrations (crossover design). The infusion scheme was a linear increasing propofol concentration up to 5 micrograms/ml for the first 20 minutes, a target of 3 micrograms/ml for the following 20 minutes, and a target propofol plasma concentration of 1.5 micrograms/ml for the following 20 minutes. At 60 minutes, the infusion was stopped.
The EEG was recorded using the CATEEM® system and the data analysis was based on the lead O1-CZ. All subjects were tested every 1.5 minutes for Loss and Recovery of Consciousness (LOC and ROC), and for Loss and Recovery of Corneal Reflex (LOCR and ROCR). Arterial blood samples were drawn at predetermined times up to 240 minutes after start of the infusion. The AQUAVAN™ and propofol plasma concentrations were measured with an LC/MS/MS validated assay and an HPLC-FL validated assay (see FIG. 1).

patients = settings: anesthetic induction doses of propofol; Bryson et al.; cited from earlier work
[3] = Cohort 3 (20 mg/kg AQUAVAN bolus; propofol rapid infusion to similar BISpeak)
[4] = Cohort 4 (25 mg/kg AQUAVAN bolus; propofol rapid infusion to similar BISpeak)

CC(C)c1cccc(C(C)C)c1OCOP(=O)(O)O [AQUAVAN, O-phosphonooxymethyl propofol disodium salt]
Duration - range (healthy subjects [1]; Cohort 1: 5 mg/kg bolus): 0 to 16 min
Mean duration of sedation/LOC (healthy subjects [1]; Cohort 1: 5 mg/kg bolus): 4.2 min
Duration - range (healthy subjects [1]; Cohort 2: 10 mg/kg bolus): 0 to 24 min
Mean duration of sedation/LOC (healthy subjects [1]; Cohort 2: 10 mg/kg bolus): 14 min
Duration - range (healthy subjects [1]; Cohort 3: 20 mg/kg bolus): 22 to 45 min
Mean duration of sedation/LOC (healthy subjects [1]; Cohort 3: 20 mg/kg bolus): 39.5 min
Duration - range (healthy subjects [1]; Cohort 4: 25 mg/kg bolus): 42 to 78 min
Mean duration of sedation/LOC (healthy subjects [1]; Cohort 4: 25 mg/kg bolus): 57.8 min
Duration - range (healthy subjects [1]; Cohort 5: 15 mg/kg bolus): 18 to 34 min
Lowest OAA/S Score (subjects - score) (healthy subjects [1]; Cohort 5: 15 mg/kg bolus): 6/6 - 1 (LOC)
Mean duration of sedation/LOC (healthy subjects [1]; Cohort 5: 15 mg/kg bolus): 22.6 min
Duration - range (healthy subjects [1]; Cohort 6: 30 mg/kg bolus): 43 to 96 min
Mean duration of sedation/LOC (healthy subjects [1]; Cohort 6: 30 mg/kg bolus): 54.3 min
State observed after bolus (healthy subjects [1]; bolus doses of 15 mg/kg and higher): induced unconscious states that varied in duration
State observed after bolus (healthy subjects [1]; dose ranges of 5-10 mg/kg): Conscious sedation, but no loss of consciousness
OAA/S scale value after 60 minutes (healthy volunteers; TCI infusion, initial propofol target 1.8 μg/ml, mean±SD): 3.7±1.1
Time after stopping the infusion to recovery to OAA/S scale value of 5 (healthy volunteers; after 2 hour TCI infusion, mean±SD): 18 ± 3 min
Systolic BP after decrease (healthy volunteers; decreased from 134±14): 106±10 mm Hg
BIS value (healthy volunteers; during the first hour of infusion (96±2 before infusion)): 74±13
BIS value (healthy volunteers; during the second hour of infusion): 64±14
Heart rate increase (healthy volunteers; from 64±14 to 72±8): 13%
Systolic BP decrease (healthy volunteers; from 134±14 to 106±10 mm Hg): 21%
Heart rate after increase (healthy volunteers; increased from 64±14): 72±8
Time after TCI target change until OAA/S scale value in target range of 2 to 3 (healthy volunteers; target changed at 60 minutes, mean±SD): 4.2 ± 2.5 min
Loss of consciousness (LOC) reached (healthy subjects [2]; 5 mg/kg single bolus cohort): no LOC was reached
Loss of consciousness (LOC) reached (healthy subjects [2]; 10 mg/kg single bolus cohort): no LOC was reached
Loss of consciousness (LOC) reached (healthy subjects [2]; 20 mg/kg single bolus cohort): all subjects reached LOC
Loss of consciousness (LOC) reached (healthy subjects [2]; 25 mg/kg single bolus cohort): all subjects reached LOC
Pain on injection, incidence (healthy subjects [2]): only reported for propofol
Apnea, incidence (healthy subjects [2]): 7 of 24
Initial increase in heart rate (HR>90 bpm), incidence (healthy subjects [2]): 17 of the 24
Time of BISpeak (lowest BIS level) (healthy subjects [2]): 630 ± 225 s
DOU (duration of unconsciousness) (healthy subjects [2]; [3]): 1507 ± 914 s
Time to LOC (healthy subjects [2]; [3]): 157 ± 69 s
Time to ROC (healthy subjects [2]; [3]): 1664 ± 920 s
DOU (duration of unconsciousness) (healthy subjects [2]; [4]): 2703 ± 267 s
Time to LOC (healthy subjects [2]; [4]): 162 ± 40 s
Time to ROC (healthy subjects [2]; [4]): 2865 ± 245 s
Time to LOCR (loss of corneal reflex) (healthy male volunteers): 16 ± 5 min
Time to ROC (recovery of consciousness) (healthy male volunteers): 73 ± 13 min
Time to ROCR (recovery of corneal reflex) (healthy male volunteers): 46 ± 15 min
Time to LOC (loss of consciousness) (healthy male volunteers): 9 ± 2 min
Decrease of Median Power Frequency (MPF) in the EEG (healthy male volunteers; plasma propofol from AQUAVAN compared to plasma propofol from propofol, comparable plasma concentrations): greater decrease of the MPF

CC(C)c1cccc(C(C)C)c1O [propofol, 2,6-diisopropylphenol]
Pain on injection, incidence (healthy subjects [2]): 10 of the 24
Apnea, incidence (healthy subjects [2]): 10 of 24
Initial increase in heart rate (HR>90 bpm), incidence (healthy subjects [2]): 4 of the 24
Time of BISpeak (lowest BIS level) (healthy subjects [2]): 358 ± 315 s
DOU (duration of unconsciousness) (healthy subjects [2]; [3]): 416 ± 94 s
Time to LOC (healthy subjects [2]; [3]): 184 ± 63 s
Time to ROC (healthy subjects [2]; [3]): 600 ± 105 s
DOU (duration of unconsciousness) (healthy subjects [2]; [4]): 748 ± 245 s
Time to LOC (healthy subjects [2]; [4]): 208 ± 84 s
Time to ROC (healthy subjects [2]; [4]): 956 ± 294 s
Time to LOCR (loss of corneal reflex) (healthy male volunteers): 19 ± 6 min
Time to ROC (recovery of consciousness) (healthy male volunteers): 47 ± 10 min
Time to ROCR (recovery of corneal reflex) (healthy male volunteers): 32 ± 10 min
Time to LOC (loss of consciousness) (healthy male volunteers): 13 ± 2 min
Respiratory consequences, including reduction in tidal volume and apnea: share of patients (patients): up to 83%
